# Tests used:
# ES-2 cells = assay: Cell growth/viability (MTT, microscopy); format: cell-based, human; settings: ES-2 cells, 50 μM, 30 hours
# Method: (§1) Lung, breast, ovarian, and other carcinoma cells were either obtained from American Type Culture Collection (ATCC) or from the DTP and DCTD Tumor Repository of National Cancer Institute (the NCI-60 cancer cell line panel), operated by Charles River Laboratory, Inc., as listed in Table 1. They were cultured according to instructions and treated with various concentrations of LSD1 inhibitors for 30-36 hours for mRNA analysis by quantitative real time RT-PCR or for 30-48 hours for protein analysis and the cell viability assays using Western blotting or microscopy and MTT assays as described previously (Wang, J., et al. (2011) Cancer Research 71, 7238-7249).
# Alternatively, cell viability assays were conducted as previously described (Wang, J., et al. (2011) Cancer Research 71, 7238-7249). […] Dimethylsulfoxide (DMSO) was used as a solvent control. MTT was added to a final concentration of 0.5 mg/mL and cells were re-incubated for 4 hours. After removing the medium, 200 μL DMSO was added to dissolve formazan, followed by incubation for 10 minutes, and absorbance was measured at 490 nm by a Bio Red microplate reader. All assays were performed in triplicates for each concentration. The cell viability rate was calculated as the relative percentage of MTT absorption as follows: % cell viability=(mean experimental absorbance/mean control absorbance)×100.
# Table 8 below lists activity of CBB3001 (compound 10) in Sox2-negative (ES-2) and Sox2-expressing (PA-1 and T47D) cancer cells determined in a cell-based assay as described herein (see also FIG. 3A-C).
# G401 cells = assay: Cell growth/viability (MTT, microscopy); format: cell-based, human; settings: 50 μM, 30 hours
# Method: as §1
# Alternatively, cell viability assays were conducted as previously described (Wang, J., et al. (2011) Cancer Research 71, 7238-7249). […] After removing the medium, 200 μL DMSO was added to dissolve formazan, followed by incubation for 10 minutes, and absorbance was measured at 490 nm by a Bio Red microplate reader. […] The cell viability rate was calculated as the relative percentage of MTT absorption as follows: % cell viability=(mean experimental absorbance/mean control absorbance)×100.
# Referring to FIG. 10B, Sox2-expressing myelogenous leukemia and rhabdoid tumor cells were also sensitive to LSD1 inhibitors. […] The statistical differences between compound treated and control groups were analyzed by One-way ANOVA. *: p<0.05 and **: p<0.01.
# HDAC1-protein A complex = biological target: T1, HDAC1-protein A complex (Mus musculus, UniProt O09106); assay: In vitro deacetylation assay, immunoaffinity-purified HDAC1-protein A complex from F9 cells; format: biochemical; settings: H4K16ac peptide; 50 μM CBB1007 or 2 μM MS-275
# T1 construct: 1 μg immunoprecipitated endogenous HDAC1-protein A complexes; endogenous in cells; host or cells: F9 mouse teratocarcinoma cells, anti-HDAC1 immunoprecipitate on protein A-Sepharose
# Excerpt: (§2) The immunocomplexes were captured by protein A-Sepharose. Isolated LSD1-protein A or HDAC1-protein A complexes were verified by Western blotting with LSD1 and HDAC1 antibodies.
# [1] = biological target: T2, recombinant LSD1 (GST-LSD1) (Homo sapiens, UniProt O60341); assay: In vitro demethylation assay, recombinant LSD1, H3K4me2 peptide; format: biochemical; settings: dimethylated H3K4 peptide; 50 μM CBB1007 or 2 μM MS-275
# T2 construct: Human LSD1 and HDAC1 full-length cDNAs were obtained from Open Biosystems; GST (N, cleaved yes); made in house; host or cells: Escherichia coli BL21
# Excerpt: H3K4me2 and H4K16ac were purchased from AnaSpec and Shanghai Science Peptide Biological Technology Co., Ltd., respectively. Human LSD1 and HDAC1 full-length cDNAs were obtained from Open Biosystems. Human CoREST cDNA was amplified by reverse transcription-PCR (RT-PCR) using mRNA isolated from HeLa cells. These cDNAs were fully sequenced and cloned into the pGEX-KG or pET28a vector and expressed as the glutathione S-transferase (GST)- or His-tagged fusion proteins in the Escherichia coli BL21 strain and affinity purified with glutathione or Ni-Sepharose (GE Healthcare, United Kingdom) resin. […]
# For a typical deacetylation assay, 1 μg rHDAC1 or 1 μg immunoprecipitated endogenous HDAC1-protein A complexes (from two 10-cm dishes) was incubated with 0.4 μg H4K16ac peptide in the presence or absence of 50 μM CBB1007 or 2 μM MS-275 at 30° C. for 1 h. The percentages of deacetylated products were analyzed by mass spectrometry, and the data were analyzed by GraphPad Prism (version 5) software. The reaction products were analyzed by mass spectrometry to separate the peptide substrate (H4K16ac) and the product (H4K16), as previously described (Wang, J., et al. (2011) Cancer Research 71, 7238-7249). […]
# LSD1-protein A complex = biological target: T3, LSD1-protein A complex (Mus musculus, UniProt Q6ZQ88); assay: In vitro demethylation assay, immunoaffinity-purified LSD1-protein A complex from F9 cells; format: biochemical; settings: dimethylated H3K4 peptide; 50 μM CBB1007 or 2 μM MS-275
# T3 construct: recombinant and endogenous LSD1 complexes isolated from F9 cells; endogenous in cells; host or cells: F9 mouse teratocarcinoma cells, anti-LSD1 immunoprecipitate on protein A-Sepharose
# Excerpt: as §2
# [2] = biological target: T4, LSD1-CoREST-HDAC1 complex (Homo sapiens, UniProt O60341+Q13547); assay: Reconstituted LSD1-CoREST-HDAC1 complex on oligonucleosomes; format: biochemical; settings: 50 μM CBB1007 or 2 μM MS-275
# T4 construct: Human LSD1 and HDAC1 full-length cDNAs were obtained from Open Biosystems; GST (N, cleaved yes); made in house; host or cells: Escherichia coli BL21
# Method: For the reconstitution reaction, recombinant GST-CoREST, His-LSD1, and recombinant HDAC1 (rHDAC1) (GST was removed by the use of PreScission protease) (10 μg) were assembled into the LSD1-CoREST-HDAC1 complex and then pulled down by GSTSepharose resins. Protein A-Sepharose was used as a negative-control resin.
# Briefly, cells (1×10^6) were washed twice with ice-cold hypotonic buffer (20 mM potassium-HEPES, pH 7.8, 5 mM potassium acetate, 0.5 mM MgCl2, 0.5 mM DTT), swelled, and disrupted with 25 strokes in a Dounce homogenizer using a tightfitting pestle. Nuclei were pelleted at 4,000 rpm for 5 min and resuspended in buffer A (20 mM HEPES, pH 7.9, 1.5 mM magnesium acetate, 50 mM potassium acetate, 10% glycerol, 0.5 mM DTT, 150 mM NaCl, protease and phosphatase inhibitors). […] The chromatin pellet was resuspended in 0.5 mL buffer B (0.32 M sucrose, 50 mM Tris-HCl, pH 7.5, 4 mM MgCl2, 1 mM CaCl2, 0.1 mM phenylmethylsulfonyl fluoride) and incubated with 30 units of micrococcal nuclease for 10 min at 37° C. The digested samples were centrifuged at 8,000×g for 10 min, and the supernatant, which contained oligonucleosomes, was recovered.
# The reaction products (demethylated or deacetylated histones) were analyzed by Western blotting.
structure (smiles),measurement,setting,value
COC(=O)c1cc(CN2CCN(C(=N)N)CC2)cc(C(=O)N2CCN(C(=O)c3ccc(C(=N)N)cc3)CC2)c1 [CBB1007],cell growth,ES-2 cells,not sensitive
same,cell growth,G401 cells,inhibited
same,deacetylase activity of immunoaffinity-purified HDAC1 (HDAC1-protein A),HDAC1-protein A complex,sufficient to inhibit the deacetylase activity
same,demethylation activity of GST-LSD1,[1],sensitive
same,demethylation activity of immunoaffinity-purified LSD1 (LSD1-protein A),LSD1-protein A complex,sensitive
same,HDAC1 deacetylase activity in the reconstituted complex,[2],partial inhibition of the HDAC1 deacetylase activity
same,LSD1 demethylase activity in the reconstituted complex,[2],inhibited the activity of LSD1 demethylase

# From patent US9918983B2, “Suicidal LSD1 inhibitors targeting SOX2-expressing cancer cells” (THE BOARD OF REGENTS OF THE NEVADA SYSTEM OF HIGHER …, priority 2013, dated 2018)
